Reference: patent US20040220164A1, “Triaza compound immunoregulatory agents” (priority 2001, published 2004)
Like-named read-outs stand apart in the source and are kept apart here.

How the values were obtained:
CD25 = assay: Cell surface antigen expression by flow cytometry (Table 2); format: cell-based, human; conditions: CADA 16 μM, 4 days, percentage of positive cells, unit not given
Protocol: (§1) Expression of various other surface antigens was also examined in MT-4 cells, SupT1 cells and PBMCs after incubation with CADA (16 μM) or CADA-free medium at 37° C. for 4 days. After washing with phosphate-buffered saline (PBS) containing 2% FCS(fetal calf serum), the cells were incubated with mAb (as indicated in Table 1) for 20 min at 4° C. Then the cells were washed, fixed with 1% formaldehyde and analyzed by flow cytometry. All mAbs were purchased from Becton-Dickinson (Erembodegem, Belgium).

CD2 = assay: as above; format: cell-based, human; conditions: CADA 16 μM, 4 days, percentage of positive cells, unit not given
Protocol: as §1

CD45RA = assay: as above; format: cell-based, human; conditions: CADA 16 μM, 4 days, percentage of positive cells, unit not given
Protocol: as §1

CD45 = assay: as above; format: cell-based, human; conditions: CADA 16 μM, 4 days, percentage of positive cells, unit not given
Protocol: as §1

CD5 = assay: as above; format: cell-based, human; conditions: CADA 16 μM, 4 days, percentage of positive cells, unit not given
Protocol: as §1

HLA-DR = assay: as above; format: cell-based, human; conditions: CADA 16 μM, 4 days, percentage of positive cells, unit not given
Protocol: as §1

TCRα/β = assay: as above; format: cell-based, human; conditions: CADA 16 μM, 4 days, percentage of positive cells, unit not given
Protocol: as §1

HHV-7 (KHR strain) = assay: Anti-HHV-7 assay (HHV-7 antigen expression, flow cytometry, day 12); format: cell-based
Protocol: (§2) The antiviral activity of CADA against HIV-1 and RHV-7 was investigated. PBMCs and […] cell-depleted PBMCs (removed with CD8 magnetic beads; Dynal AS, Oslo, Norway), previously activated with purified PHA (2 μg/ml) and rhIL-2 (1 ng/ml) for 3 days, were pelleted and exposed to HIV-1 (1 ng p24 Ag per 10^6 cells) for 2 hours at 370C. Then the cells were washed three times with warm medium and cultured in complete medium containing rhIL-2 (1 ng/ml) in the presence or absence of different concentrations of CADA hydrochloride. The anti-HIV-1 assays were also performed in MT-4 and SupT1 cells. CADA hydrochloride was diluted in the plates, then the MT-4 cells or SupT1 cells were added and finally the T-tropic HIV-1 strains. The supernatant was collected at day 5 for MT-4 cells, day 8 for SupT1 cells and day 12 for PBMCs, and stored at −20° C. and analyzed for HIV-1 core antigen by p24 Ag ELISA (NEN, Brussels, Belgium). The SupT1 cells were refreshed on day 4, and half of the medium and cells were replaced and fresh CADA-free medium was added. For the PBMCs, fresh culture medium was added at day 6 containing rhIL-2 (but no CADA). For the anti-HHV-7 assays in PBMCs, CADA hydrochloride was diluted in a plate, 2×10˜cells were added and then HHV-7 (KHR strain) was added in complete medium containing rhIL-2 (1 ng/ml). Fresh culture medium was added again at day 6 containing rhIL-2 (but no CADA). The same infection protocol was used for the SupT1 cells, but without rhIL-2. The SupT1 cells were refreshed on day 4 and day 8, half of the medium and the cells were replaced, and fresh medium without CADA was added. The HHV-7 antigen expression was monitored (at day 12) with a specific mAb to HHV-7 (RK-4) (Advanced Biotechnologies, Columbia, Md.) by flow cytometry, as described previously (Thang, Y., et al., Antiviral Res. 43:23-35 (1999)).

HIV-1 strain NL4.3 = assay: Anti-HIV-1 assay (p24 Ag ELISA); format: cell-based; conditions: for IC50: read-out: IC50 against HIV-1 NL4.3; for p24 viral core antigen in supernatant: MT-4, NL4.3
Protocol: as §2
(§3) Table 4 presents the results for MT-4 cells pretreated with CADA for 1 day at 8.1 μM and then infected with the HIV-1 strain NL4.3 or RF in the presence or absence of CADA. […] As three CD4 binding events are needed to efficiently activate HIV-1 Env trimers (Layne, S. P., et al., Nature 346: 602-605 (1990)), multimeric CD4 binding is required for HIV infection, further confirming that receptor density plays a crucial role in the efficiency of viral infectivity (Platt, E. J., et al., J. Virol. 71: 883-890 (1997)). […] Primary HIV isolates seem to be much more dependent on the level of CD4 expression (Kabat; D., et al., J. Virol. 68:2570-2577 (1994)). […] Although CD4-independent viruses are described (Hofflian, T. L., et al., Proc. Natl. Acad. Sci. U.S.A. 96: 63 59-6364 (1999)), these are much more sensitive to neutralization by antibodies, which explains the rarity of CD4-independent wild-type HIV variants (Kolchinski, P., et al., J. Virol. 75: 204 1-2050 (2001)).

HIV-1 strain RF = assay: Anti-HIV-1 assay (p24 Ag ELISA); format: cell-based; conditions: for IC50: read-out: IC50 against HIV-1 RF; for p24 viral core antigen in supernatant: MT-4, RF
Protocol: as §2, §3

[1] = test system: CCR5-using (R5) HIV-1 strain BaL; assay: Anti-HIV-1 assay (p24 Ag ELISA); format: cell-based; conditions: Human immunodeficiency virus 1, BAL, PBMC; read-out: IC50 against HIV-1 BaL
Protocol: as §2

HIV-1 strain IIIB = assay: Anti-HIV-1 assay (p24 Ag ELISA); format: cell-based; conditions: Human immunodeficiency virus 1, IIIB, read-out: IC50 against HIV-1 IIIB
Protocol: as §2

[2] = Human immunodeficiency virus 1, MT4, MT-4 cells
[3] = Human immunodeficiency virus 1, PBMC
[4] = Human immunodeficiency virus 1, SUP-T1, SupT1 cells
[5] = pre-treated (CADA 8.1 μM, 24 hours), CADA 0.13 μM after infection
[6] = pre-treated (CADA 8.1 μM, 24 hours), CADA 0.6 μM after infection
[7] = pre-treated (CADA 8.1 μM, 24 hours), CADA 3.2 μM after infection

For `C=C1CN(S(=O)(=O)c2ccc(C)cc2)CCCN(Cc2ccccc2)CCCN(S(=O)(=O)c2ccc(C)cc2)C1` [CADA], the “CD25 cell surface antigen expression” value (CD25; MT-4 T-cells) was 93.3, the “CD25 cell surface antigen expression” value (CD25; PBMCs) was 35.5 and the “CD25 cell surface antigen expression” value (CD25; SupT1 T-cells) was 1. The “CD2 cell surface antigen expression” value (CD2; MT-4 T-cells) was 2.6, the “CD2 cell surface antigen expression” value (CD2; PBMCs) was 90.7 and the “CD2 cell surface antigen expression” value (CD2; SupT1 T-cells) was 0.5. For the same molecule, the “CD45RA cell surface antigen expression” value (CD45RA; MT-4 T-cells) was 2.0, the “CD45RA cell surface antigen expression” value (CD45RA; PBMCs) was 64.3 and the “CD45RA cell surface antigen expression” value (CD45RA; SupT1 T-cells) was 0.5. The “CD45 cell surface antigen expression” value (CD45; MT-4 T-cells) was 3.57, the “CD45 cell surface antigen expression” value (CD45; PBMCs) was 98.3 and the “CD45 cell surface antigen expression” value (CD45; SupT1 T-cells) was 99.6. The “CD5 cell surface antigen expression” value (CD5; MT-4 T-cells) was 99.1, the “CD5 cell surface antigen expression” value (CD5; PBMCs) was 80.6 and the “CD5 cell surface antigen expression” value (CD5; SupT1 T-cells) was 93.9. For the same molecule, the “HLA-DR cell surface antigen expression” value (HLA-DR; MT-4 T-cells) was 98.7, the “HLA-DR cell surface antigen expression” value (HLA-DR; PBMCs) was 27 and the “HLA-DR cell surface antigen expression” value (HLA-DR; SupT1 T-cells) was 1.7. The “TCRα/β cell surface antigen expression” value (TCRα/β; MT-4 T-cells) was 1.1, the “TCRα/β cell surface antigen expression” value (TCRα/β; PBMCs) was 82.3 and the “TCRα/β cell surface antigen expression” value (TCRα/β; SupT1 T-cells) was 1.6. For the same molecule, the IC50 (HHV-7 (KHR strain); PBMC, CD8+ depleted PBMC, read-out: IC50 against HHV-7) was 900 nM, the IC50 (HHV-7 (KHR strain); PBMC, read-out: IC50 against HHV-7) was 1500 nM and the IC50 (HHV-7 (KHR strain); SUP-T1, SupT1 cells, PBMCs and CD8+ T-cell depleted PBMCs, read-out: inhibitory concentration (IC50) for HHV-7, range over cell types) was 300 to 1500 nM. It also gave an IC50 (HHV-7 (KHR strain); SUP-T1, SupT1 cells, read-out: IC50 against HHV-7) of 300 nM, an IC50 (HIV-1 strain NL4.3; [2]) of 500 nM and an IC50 (HIV-1 strain NL4.3; [3]) of 1600 nM. For the same molecule, the IC50 (HIV-1 strain NL4.3; [4]) was 3100 nM, the “p24 viral core antigen in supernatant” value (HIV-1 strain NL4.3; cells pre-treated with CADA hydrochloride 8.1 μM 24 hours, medium without CADA after infection, untreated control 158627) was 34839 pg/mL and the “p24 viral core antigen in supernatant” value (HIV-1 strain NL4.3; not pre-treated, CADA 0.13 μM) was 127838 pg/mL. For the same molecule, the “p24 viral core antigen in supernatant” value (HIV-1 strain NL4.3; not pre-treated, CADA 0.6 μM) was 63098 pg/mL, the “p24 viral core antigen in supernatant” value (HIV-1 strain NL4.3; not pre-treated, CADA 3.2 μM) was under 5 pg/mL and the “p24 viral core antigen in supernatant” value (HIV-1 strain NL4.3; [5]) was 33785 pg/mL. For the same molecule, the “p24 viral core antigen in supernatant” value (HIV-1 strain NL4.3; [6]) was under 5 pg/mL, the “p24 viral core antigen in supernatant” value (HIV-1 strain NL4.3; [7]) was under 5 pg/mL and the IC50 (HIV-1 strain RF; [2]) was 900 nM. For the same molecule, the IC50 (HIV-1 strain RF; [3]) was 1900 nM, the IC50 (HIV-1 strain RF; [4]) was 1800 nM and the “p24 viral core antigen in supernatant” value (HIV-1 strain RF; cells pre-treated with CADA hydrochloride 8.1 μM 24 hours, medium without CADA after infection, untreated control 100002) was 42853 pg/mL. For the same molecule, the “p24 viral core antigen in supernatant” value (HIV-1 strain RF; not pre-treated, CADA 0.13 μM) was 75118 pg/mL, the “p24 viral core antigen in supernatant” value (HIV-1 strain RF; not pre-treated, CADA 0.6 μM) was 56139 pg/mL and the “p24 viral core antigen in supernatant” value (HIV-1 strain RF; not pre-treated, CADA 3.2 μM) was under 5 pg/mL. For the same molecule, the “p24 viral core antigen in supernatant” value (HIV-1 strain RF; [5]) was 35894 pg/mL, the “p24 viral core antigen in supernatant” value (HIV-1 strain RF; [6]) was under 5 pg/mL and the “p24 viral core antigen in supernatant” value (HIV-1 strain RF; [7]) was under 5 pg/mL. It also gave an IC50 [1] of 800 nM, an IC50 (HIV-1 strain IIIB; MT4, MT-4 cells) of 300 nM and an IC50 (HIV-1 strain IIIB; PBMC) of 600 nM. It also gave an IC50 (HIV-1 strain IIIB; SUP-T1, SupT1 cells) of 900 nM.
